Assay results: patent publication US20240165129A1, “METHODS OF TREATING PAIN AND DEPRESSION” (priority 2022, published 2024)
Entries after “also recorded” stand apart in the source; their conditions may differ.

Legend:
[1] = test system: ASIC currents (ASIC1a-like) in cortical neurons; experiment: Patch-clamp recording of ASIC (ASIC1a-like) currents in primary cultured mouse cortical neurons; assay type: cell-based
[2] = test system: mice (depression-like behavior); experiment: Sucrose preference and chronic (unpredictable) mild stress; assay type: in vivo, mouse
Method: Sucrose preference is assessed in individually housed, stressed and unstressed mice. Briefly, two bottles (one 8% sucrose and one water) are placed in each cage for 3 d; 2 d to habituate and 1 d to assess sucrose preference. The locations of the bottles are rotated each 24-h period. At the beginning and end of the final 12-h period both bottles are weighed, and sucrose preference is defined as sucrose solution consumed/total liquid consumed×100%. Unstressed mice only undergo the 3 d sucrose preference assessment. Stressed mice also undergo 6 d of unpredictable stressors in the following order: restraint (3 h), wetted bedding (12 h), restraint (3 h), 45° angle cage tilt (12 h), paired housing with an unfamiliar mouse (1 h), exposure to a predator odor (1 h) (trimethylthiazoline, Pherotech International). Sucrose preference is then assessed during the final overnight period as described above.

mice brain after MCAO = details: mouse, in vivo
[3] = test system: mice (depression-like behavior); experiment: Tail suspension test; assay type: in vivo, mouse
Method: This test is performed by the Tennessee Mouse Genome Consortium (tnmouse.org/neuromutagenesis/behavioral). Mice are suspended by the tail from a ledge ˜60 cm from the ground with adhesive tape. Immobility is defined as the absence of movement and is scored over a 6—min trial.

stroke = details: in vivo; cited from earlier work
[4] = biological target: T1, heteromeric ASIC1a/2a channels (Mus musculus, UniProt Q6NXK8+Q925H0); experiment: ASIC currents in cortical neurons in the presence of PcTx1 (heteromeric channels); details: Triol 10 μM
T1 sequence (Q6NXK8 1-526): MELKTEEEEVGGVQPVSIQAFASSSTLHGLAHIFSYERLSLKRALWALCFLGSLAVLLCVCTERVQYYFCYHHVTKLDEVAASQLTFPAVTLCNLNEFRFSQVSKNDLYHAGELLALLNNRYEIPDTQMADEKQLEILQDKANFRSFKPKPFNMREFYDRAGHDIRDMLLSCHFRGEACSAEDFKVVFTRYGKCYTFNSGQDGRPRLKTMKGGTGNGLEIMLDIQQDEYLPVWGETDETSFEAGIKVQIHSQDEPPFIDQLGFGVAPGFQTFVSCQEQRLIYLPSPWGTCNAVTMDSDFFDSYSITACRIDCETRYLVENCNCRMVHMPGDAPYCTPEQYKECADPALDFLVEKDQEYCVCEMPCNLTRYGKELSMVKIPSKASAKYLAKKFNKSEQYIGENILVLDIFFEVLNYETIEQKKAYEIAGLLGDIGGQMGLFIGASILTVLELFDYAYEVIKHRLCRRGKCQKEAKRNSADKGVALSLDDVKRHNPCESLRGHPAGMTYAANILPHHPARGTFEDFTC
T1 sequence (Q925H0 1-512): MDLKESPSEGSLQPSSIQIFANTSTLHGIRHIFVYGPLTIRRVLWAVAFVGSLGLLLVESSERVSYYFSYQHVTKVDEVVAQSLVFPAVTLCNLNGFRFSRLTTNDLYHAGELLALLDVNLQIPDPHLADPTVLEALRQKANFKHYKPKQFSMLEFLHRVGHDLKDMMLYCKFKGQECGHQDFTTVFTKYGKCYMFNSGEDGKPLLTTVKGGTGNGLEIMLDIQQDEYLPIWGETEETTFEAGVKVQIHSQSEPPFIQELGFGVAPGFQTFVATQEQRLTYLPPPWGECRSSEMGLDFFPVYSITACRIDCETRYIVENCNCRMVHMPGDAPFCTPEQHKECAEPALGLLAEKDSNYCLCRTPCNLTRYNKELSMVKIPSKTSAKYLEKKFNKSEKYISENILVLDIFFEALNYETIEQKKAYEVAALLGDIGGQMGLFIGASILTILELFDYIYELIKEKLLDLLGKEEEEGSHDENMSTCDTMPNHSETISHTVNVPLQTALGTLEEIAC
Method: Mouse cortical neurons were cultured. Pregnant Swiss mice were purchased from Charles River. The use of mice for neuronal cultures was approved by the Institutional Animal Care and Use Committee of Morehouse School of Medicine. Briefly, the brains of fetuses (embryonic day 16) were removed quickly from anesthetized pregnant mice and placed in cold Ca2+/Mg2+-free PBS. Cerebral cortices were dissected and incubated with 0.05% trypsin-EDTA for 10 min at 37° C., followed by trituration. Cells were plated in poly-L-ornithine-coated culture dishes. Cells were initially cultured in minimal essential medium (MEM) with 10% fetal bovine serum (FBS), 10% horse serum, and 25 mM glucose and maintained at 37° C. in a humidified 5% CO2 atmosphere incubator for 24 h. After that, the culture medium was completely replaced by Neurobasal medium supplemented with B-27 (Invitrogen) and then changed twice a week. Neurons were used for the experiments between days 10 and 14.
ASIC currents were recorded using patch-clamp techniques. Pipette solution contained (mM): 140 CsF, 1 CaCl2, 2 MgCl2, 11 EGTA, 2 tetraethylammonium chloride, 10 HEPES and 4 MgATP, pH 7.3 adjusted with CsOH, 290-300 mOsm. […] Currents were recorded with Axopatch 200B amplifier, filtered at 2 kHz, and digitized at 5 kHz using Digidata 1332A. […]

[5] = test system: C57BL/6J mice (inflammatory pain); experiment: Carrageenan-evoked inflammatory pain, von Frey paw withdrawal; assay type: in vivo, mouse; details: 12 mg/kg IV, 2 h after 2% carrageenan intraplantar
Method: Triol inhibits the above ASICs, so Triol has an analgesic effect. […] Experiments are performed on 12-week-old (20-25 g) C57BL/6J mice following the guidelines of the International Association for the Study of Pain. Inflammatory pain is evoked by intraplantar injection in the left hindpaw of 2% carrageenan (20 μl). After 2 h, Triol (12 mg/kg) or vehicle (20% HP-β-CD) is injected IV. The mechanical withdrawal threshold on the plantar surface of the hindpaw is measured with a set of von Frey hairs in the range of 0.4-26 gm (0.4, 1.2, 2, 4, 6, 8, 10, 15, 26 gm).

[6] = test system: mice (depression-like behavior); experiment: Forced swim test; assay type: in vivo, mouse
[7] = test system: corticosterone-induced depression-like behaviors in mice; experiment: Mouse model of depression induced by repeated corticosterone injections; assay type: in vivo; details: 12 mg/kg i.p. daily, corticosterone 40 mg/kg i.p. for 21 days
Method: Based on the fact that Triol inhibits ASIC1a, Triol can have anti-depression activity. […] A mouse model of depression induced by repeated corticosterone injections is used. Depression-like behaviors are induced by repeated administration of corticosterone (40 mg/kg, i.p.), once a day for 21 days in mice. Mice arerandomly assigned to 4 experimental groups (n=10/group). Control, corticosterone, corticosterone +Vehicle (20% HP-β-CD) and corticosterone+ Triol (12 mg/kg, i.p.). Triol is administered daily. The sucrose consumption test, open-field test (OFT), tail suspension test (TST), and forced swimming test (FST) are used to evaluate the therapeutic effect of Triol.

[8] = test system: primary cultured mouse cortical neurons; experiment: Acidosis-induced neuronal injury, FDA/PI staining; details: 1 and 10 μM, pH 6.0 for 1.5 h, 24 h
[9] = 10 μM, before and after perfusion for 5 min

CC(C)CCC[C@@H](C)[C@H]1CC[C@H]2[C@@H]3C[C@@H](O)[C@@]4(O)C[C@@H](O)CC[C@]4(C)[C@H]3CC[C@]12C [Triol, cholestane-3β, 5α, 6β-triol]
effect on current-voltage relationship (IV) [1, 9]: does not affect the current-voltage relationship | shift in the pH dose-response of ASIC peak currents [1, 9]: not a significant shift | decrease of ASIC currents in cortical neurons ([1]; 10 μM, within 5 min of application/perfusion): ~40% | reversibility of ASIC current inhibition in cortical neurons ([1]; after 30 min washout (data not shown)): irreversible | voltage dependence of inhibitory activity ([1]; holding potential −60 mV vs −30 mV): no significant change in the inhibitory activity | depression-like behavior following unpredictable mild stress [2]: decreased levels of depression-like behavior | infarct volume, Triol in the presence of PcTx-1 (mice brain after MCAO): no additional reduction | protection against ischemic brain injury (mice brain after MCAO): didn't show additional protection; also recorded: A similar result; also recorded: significant protection | depression-like behavior in the tail suspension test [3]: decreased levels of depression-like behavior | therapeutic time window for stroke treatment (stroke): at least 4 h | effect on remaining ASIC currents in the presence of PcTx1 ([4]; PcTx1 40 nM, PcTx-1 sensitive neurons, n=9): further inhibited | effect on PcTx1 insensitive ASIC currents ([4]; PcTx-1 insensitive neurons (3 of 12 cells)): still inhibit these currents | latency for the paw withdrawal reflex [5]: increases the latency for the paw withdrawal reflex | depression-like behavior in the forced swim test [6]: decreased levels of depression-like behavior | antidepressant activity (sucrose consumption, OFT, TST, FST) [7]: alleviating corticosterone-induced depression-like behaviors | death rate of cortical neurons (PI staining) [8]: decrease death rate | survival rate of cortical neurons (FDA staining) [8]: increase survival rate
